Where a name gives a salt, the structure may show the parent alone.
What was measured:
[1] = system: db/db-mice; assay: Intraperitoneal glucose tolerance test in 24 h fasted db/db-mice after 4 weeks of treatment; assay type: in vivo; details: female obese db/db-mice, glucose bolus 1 g/kg i.p., Compound A 3 mg/kg orally, RIMONABANT Hydrochloride 10 mg/kg orally or combination of both, once daily for 4 weeks, FIG. 2
Description: (§1) Aim of the study was to investigate the influence of a combination of RIMONABANT Hydrochloride and Compound A on HbA1c and glucose tolerance.
(§2) Female obese db/db-mice (BKS.Cg/BomTac-m+/+Lepr^db), supplied by Taconic Europe (Denmark) were used at the age of 10-11 weeks. Animals were kept under controlled conditions (22° C., 12 h light/12 h dark cycle) and received standard laboratory chow and water ad libitum. For each group a number of 15 animals were used.
(§3) Animals were treated with Compound A [3 mg/kg orally, suspended in methocel (hypromellose, 4% aequous solution)], RIMONABANT Hydrochloride [10 mg/kg orally, suspended in methocel (hypromellose, 4% aequous solution), Sequoia Research Products, Pangbourne, UK] or a combination of both once daily for 4 weeks. Vehicle treated animals served as control. HbA1c levels were analyzed using the Micromat II Hemoglobin A1c Test (Bio-Rad Laboratories GmbH, 80939 München, Germany). An intraperitoneal glucose tolerance test was performed in 24 h fasted animals. A glucose bolus (1 g/kg body weight) was administered intraperitoneally. Blood glucose was monitored for the following time points: t=−120 min, 0 min (before glucose administration), 30 min, 60 min, 90 min, 120 min (after glucose administration). Blood was taken by tail-tip-bleeding (5 μl) and was determined from hemolysate using an analyzing machine (Biosen S_line, EKF Diagnostic, Germany). […]

[2] = system: db/db-mice; assay: HbA1c levels in db/db-mice after 4 weeks of once daily oral treatment (Micromat II Hemoglobin A1c Test); assay type: in vivo; details: female obese db/db-mice; Compound A 3 mg/kg orally, RIMONABANT Hydrochloride 10 mg/kg orally or combination of both, once daily for 4 weeks; vs vehicle; FIG. 1
Description: as §1, §2, §3

CCOc1cc2c(cc1OC)C(c1ccc(OC)nc1OC)=N[C@@H]1CC[C@@H](O)C[C@H]21 [Compound A, (2R,4aR,10bR)-6-(2,6-Dimethoxy-pyridin-3-yl)-9-ethoxy-8-methoxy-1,2,3,4,4a,10b-hexahydrophenanthridin-2-ol]
effect on glucose tolerance [1]: no effect | effect on HbA1c [2]: no effect

Cc1c(C(=O)NN2CCCCC2)nn(-c2ccc(Cl)cc2Cl)c1-c1ccc(Cl)cc1 [RIMONABANT Hydrochloride, 5-(4-chlorophenyl)-1-(2,4-dichlorophenyl)-4-methyl-N-piperidin-1-yl-1H-pyrazole-3-carboxamide]
effect on glucose tolerance [1]: no effect | effect on HbA1c [2]: no effect
